Measured values reported in patent publication US12448372B2, “Class of triaromatic compounds targeting bifunctional phosphorylation site of STAT3 and applications thereof” (SHANGHAI YUYAO BIOTECH LTD., priority 2019, dated 2025).
pIC50, pKd: −log10 of the molar value. Like-named read-outs stand apart in the source and are kept apart here.

Legend:
STAT3 protein = STAT3 protein (Homo sapiens, UniProt P40763); test: Binding activity to STAT3 protein by microscale thermophoresis (MST); conditions: purified STAT3 recombinant protein
Excerpt: (1) Determination of Binding Activities of Compounds to STAT3 Protein by Microscale Thermophoresis (MST) Method
The microscale thermophoresis (MST) technique is a simple, rapid, and accurate method for quantifying biomolecular interactions. It can measure the movement of molecules in a microscopic temperature gradient field, as well as detect changes of molecular hydration shell, charge and size. When the Nanotemper microscale thermophoresis instrument locally heated by a infrared laser, molecules will move in a directional manner, then the molecular distribution ratio in the temperature gradient field are analyzed by a fluorescence to detect whether a small molecule compound binds to a target protein. The experimental operation is as follows: firstly, compounds to be tested are diluted in a gradient using MST test buffer, total 16 concentrations being configured; subsequently, the purified STAT3 recombinant protein is labeled using the HIS tag labeling kit, and the final concentration of the labeled protein is 100-200 nM; the labeled STAT3 proteins are well mixed with the diluted compounds and incubated and protected from light for 30 minutes; finally the samples were loaded by capillary tube and detected on the instrument. The binding constants (K^D) of small molecules to STAT3 protein were analyzed by Mo. analysis software.

Capan-2 = test: Cell proliferation by MTS method, Capan-2; format: cell-based; conditions: for IC50: Table 1, Capan-2, read-out: Tumour cell proliferative activity/IC50(nM) Pancreatic Cancer Capan-2; for pIC50: Capan-2, FIG. 5B, read-out: IC50, inhibition of proliferation of pancreatic cancer cells; for improvement of anti-tumor proliferative activity over OPB51602 and IACS-010759: pancreatic cancer cells, FIG. 5B
Excerpt: (§1) (2) Detection of Cell Proliferation by MTS Method
(§2) The MTS assay is a method for indirectly determining the number of living cells via colourimetric method. MTS is a newly synthesised tetrazole compound that reflects cell viability, which can be reduced by succinate dehydrogenase in the mitochondria of living cells to an orange-coloured formazan with an absorbance of the reduced product measured at 490 nm being in proportion to the number of living cells, thus reflecting the cell viability. This assay can be used to evaluate the effect of the compound on the proliferation of pancreatic cancer cells, thereby determining the inhibitory effect of the compound on the proliferation of pancreatic cancer cells and to calculate the IC^50. Each cells were inoculated uniformly into a 96-well plate at a density of 1-20×10^3 cells/well, 100 μL per well, and placed in a constant temperature incubator until the cells adhered to the wall. The control group was added with the corresponding medium and the experimental groups were given different concentrations of the compound prepared by the examples of the present invention, and the cells were taken out 24-96 h after administration for observing the cell state under a microscope. Under light-proof conditions, MTS was added and well mixed, the mixture was placed in a constant temperature incubator at 37° C., and the light absorption value were measured using an enzyme marker at 490 nm and the experiment was repeated for three times, IC50 was calculated with GraphPad5 Prism software.

MKN45 = test: Cell proliferation by MTS method, MKN45; format: cell-based; conditions: Table 1, MKN45, read-out: Tumour cell proliferative activity/IC50(nM) gastric Cancer MKN45
Excerpt: as §1, §2

Huh7 = test: Cell proliferation by MTS method, Huh7; format: cell-based; conditions: Table 1, Huh7, read-out: Tumour cell proliferative activity/IC50(nM) Liver Cancer Huh7
Excerpt: as §1, §2

HCC827 = test: Cell proliferation by MTS method, HCC827; format: cell-based; conditions: Table 1, HCC827, read-out: Tumour cell proliferative activity/IC50(nM) Lung Cancer HCC827
Excerpt: as §1, §2

STAT3 protein, sequence (P40763 whole entry): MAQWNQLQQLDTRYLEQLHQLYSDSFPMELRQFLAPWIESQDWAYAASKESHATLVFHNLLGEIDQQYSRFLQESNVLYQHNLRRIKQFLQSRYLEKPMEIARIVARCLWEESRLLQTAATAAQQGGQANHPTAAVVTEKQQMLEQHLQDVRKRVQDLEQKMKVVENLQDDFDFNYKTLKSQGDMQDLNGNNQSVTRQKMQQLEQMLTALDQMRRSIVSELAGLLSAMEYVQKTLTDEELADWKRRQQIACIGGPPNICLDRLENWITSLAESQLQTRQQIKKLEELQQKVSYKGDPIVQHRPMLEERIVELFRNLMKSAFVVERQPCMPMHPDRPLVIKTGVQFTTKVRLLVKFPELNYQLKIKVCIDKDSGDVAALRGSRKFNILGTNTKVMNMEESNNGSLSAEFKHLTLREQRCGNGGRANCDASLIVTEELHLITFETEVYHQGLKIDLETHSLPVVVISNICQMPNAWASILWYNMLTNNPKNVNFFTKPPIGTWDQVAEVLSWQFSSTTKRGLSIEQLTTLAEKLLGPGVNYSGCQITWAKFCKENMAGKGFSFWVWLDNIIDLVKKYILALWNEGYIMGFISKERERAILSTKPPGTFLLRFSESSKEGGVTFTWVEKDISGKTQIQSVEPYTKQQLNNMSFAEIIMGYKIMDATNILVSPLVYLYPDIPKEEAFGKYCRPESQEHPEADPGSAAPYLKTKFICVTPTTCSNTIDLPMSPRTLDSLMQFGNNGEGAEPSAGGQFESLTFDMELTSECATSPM

pKd (STAT3 protein) | IC50 (MKN45; Homo sapiens, MKN-45) [nM] | IC50 (Huh7; Homo sapiens, Huh-7) [nM] | IC50 (HCC827; Homo sapiens) [nM] | SMILES | IC50 (Capan-2) [nM] | IC50 (MKN45) [nM] | IC50 (Huh7) [nM] | IC50 (HCC827) [nM] | IC50 (Capan-2; Homo sapiens) [nM] | pIC50 (Capan-2; Homo sapiens) | improvement of anti-tumor proliferative activity over OPB51602 and IACS-010759 (Capan-2) [times]
> 8.00 | < 10 | < 10 | < 10 | Cn1c(C(=O)N2CCN(Cc3ccc(OCC(F)(F)F)cc3)CC2)cc2ccc(Oc3cnc(-c4nc(-c5cccc(F)c5)no4)cn3)cc21 [Example 4, (6-((5-(3-(3-fluorophenyl)-1,2,4-oxadiazol-5-yl)pyrazin-2-yl)oxy)1-methyl-1H-indol-2-yl)(4-(4-(2,2,2-trifluoroethoxy)benzyl)piperazin-1-yl)methanone] |  |  |  |  | < 10 |  | 
> 9.00 | < 1 | < 1 | < 1 | Cn1c(C(=O)N2CCN(Cc3ccc(OCC(F)(F)F)cc3)CC2)cc2ccc(Oc3cnc(-c4nc(-c5ccccc5C(F)(F)F)no4)cn3)cc21 [Example 7, (6-((5-(3-(2-(trifluoromethyl)phenyl)-1,2,4-oxadiazol-5-yl)pyrazin-2-yl)oxy)-1-methyl-1H-indol-2-yl)(4-(4-(2,2,2-trifluoroethoxy)benzyl)piperazin-1-yl)methanone] |  |  |  |  | < 1 | 9.31 | 10
> 9.00 | < 1 | < 1 | < 1 | Cn1c(C(=O)N2CCN(Cc3ccc(OCC(F)(F)F)cc3)CC2)cc2ccc(Oc3cnc(-c4nc(-c5cccc(C(F)(F)F)c5)no4)cn3)cc21 [Example 8, (6-((5-(3-(3-(trifluoromethyl)phenyl)-1,2,4-oxadiazol-5-yl)pyrazin-2-yl)oxy)-1-methyl-1H-indol-2-yl)(4-(4-(2,2,2-trifluoroethoxy)benzyl)piperazin-1-yl)methanone] |  |  |  |  | < 1 | 9.47 | 10

The next lines start with the compound.

SMILES | pKd (STAT3 protein) | IC50 (MKN45; Homo sapiens, MKN-45) [nM] | IC50 (Huh7; Homo sapiens, Huh-7) [nM] | IC50 (HCC827; Homo sapiens) [nM] | IC50 (Capan-2) [nM] | IC50 (MKN45) [nM] | IC50 (Huh7) [nM] | IC50 (HCC827) [nM] | IC50 (Capan-2; Homo sapiens) [nM] | pIC50 (Capan-2; Homo sapiens) | improvement of anti-tumor proliferative activity over OPB51602 and IACS-010759 (Capan-2) [times]
Cn1c(C(=O)N2CCN(Cc3ccc(OCC(F)(F)F)cc3)CC2)cc2ccc(Oc3cnc(-c4nc(-c5ccccc5)no4)cn3)cc21 [Example 1, 1-methyl-(6-((5-(3-phenyl-1,2,4-oxadiazol-5-yl)pyrazin-2-yl)oxy)-1H-indol-2-yl)(4-(4-(2,2,2-trifluoroethoxy)benzyl)piperazin-1-yl)methanone] | > 8.00 |  |  |  | < 10 | < 10 | < 10 | < 10 |  |  | 
Cn1c(C(=O)N2CCN(Cc3ccc(OCC(F)(F)F)cc3)CC2)cc2ccc(Oc3cnc(-c4nc(-c5ccc(F)cc5)no4)cn3)cc21 [Example 2, (6-((5-(3-(4-fluorophenyl)-1,2,4-oxadiazol-5-yl)pyrazin-2-yl)oxy)-1-methyl-1H-indol-2-yl)(4-(4-(2,2,2-trifluoroethoxy)benzyl)piperazin-1-yl)methanone] | > 8.00 | < 10 | < 10 | < 10 |  |  |  |  | < 10 |  | 
Cn1c(C(=O)N2CCN(Cc3ccc(OCC(F)(F)F)cc3)CC2)cc2ccc(Oc3cnc(-c4nc(-c5ccccc5F)no4)cn3)cc21 [Example 3, (6-((5-(3-(2-fluorophenyl)-1,2,4-oxadiazol-5-yl)pyrazin-2-yl)oxy)1-methyl-1H-indol-2-yl)(4-(4-(2,2,2-trifluoroethoxy)benzyl)piperazin-1-yl)methanone] | > 8.00 | < 10 | < 10 | < 10 |  |  |  |  | < 10 |  | 
COc1ccc(-c2noc(-c3cnc(Oc4ccc5cc(C(=O)N6CCN(Cc7ccc(OCC(F)(F)F)cc7)CC6)n(C)c5c4)cn3)n2)cc1 [Example 5, (6-((5-(3-(4-methoxyphenyl)-1,2,4-oxadiazol-5-yl)pyrazin-2-yl)oxy)1-methyl-1H-indol-2-yl)(4-(4-(2,2,2-trifluoroethoxy)benzyl)piperazin-1-yl)methanone] | > 8.00 | < 10 | < 10 | < 10 |  |  |  |  | < 10 |  | 
